Literature values in patent publication US6683065B1, “Method of treating body insect infestation” (Host Pharmaceuticals LLC, priority 1999, dated 2004).

Conditions: at 20° C.

Substance	Surface Tension
n-alkanes	37.8^1 dynes/cm
n-fluoroalkanes	25.9^1 dynes/cm
